From patent US9249108B2, “Multicomponent system of rosuvastatin calcium salt and sorbitol” (BASF SE, priority 2010, dated 2016)

Experiments:
[1] = Water uptake under humidity; type: physicochemical
[2] = type: physicochemical
Description: Aqueous Solubility Determination: Approximately 0.5 mL of doubly distilled water is added to 16 to 39 mg of the substance to be measured. The resulting suspension is equilibrated in a temperature-controlled Eppendorf Thermomixer Comfort shaker for 2 h and 24 h at 25° C. at a shaking rate of 600 rpm. After 24 h the solid phase is recovered by filter centrifugation (0.10-μm PVDF membrane) and examined by XRPD. Concentrations in the filtrate after 2 h and 24 h (i.e., saturated solutions) are determined using HPLC. The pH of the saturated solution is determined with a Metrohm 713 pH meter.

With “Rosuvastatin hemicalcium salt/crystal form D (1:1 co-crystal with D-sorbitol)” the “water uptake under humidity” value [1] was “less prone to water uptake under humidity” and the solubility [2] was “as good as solid forms of Rosuvastatin calcium previously known”.
